Test results: patent US20220226321A1, “INHIBITOR OF MNK FOR THE TREATMENT OF NEUROPATHIC PAIN” (Board of Regents, The University of Texas System, priority 2019, published 2022)

Columns and labels:
[1] = tested on: cultured mouse DRG neurons; test: Western blot of cultured primary DRG neurons treated with eFT508; format: cell-based
DRG = test: measurement of protein synthesis by puromycin incorporation in DRG; format: in vivo, mouse; conditions: single dose 10 mg/kg
Method: Measurement of Protein Synthesis. Eight to 12-week-old wild-type and eiF4E^S209A mice were injected with puromycin (10 mg/kg via the intraperitoneal route, i.p.), and 1 hr later, DRGs were collected and processed for Western blotting using anti-puromycin monoclonal antibody (PMY-2A4, KeraFast). […] Protein synthesis was determined by measuring total lane signal from 250-15 KDa and subtracting unlabeled protein control. Signals were quantified using Image Lab (BioRad, Hercules, Calif.).

SNI mice [2] = test: attentional rule-shifting task after SNI; format: in vivo, mouse; conditions: SNI mice vs SNI+vehicle, 10 mg/kg p.o. 7 days
Method: (§1) Surgery. Spared nerve injury (SNI) was performed by the ligation and cutting of the tibial and peroneal branches of the left sciatic nerve trifurcation, leaving the sural branch intact as previously described (Decosterd and Woolf, 2000). Sham surgeries were performed the same way but without cutting the nerve. Mice were allowed to recover for 2 weeks following surgery.
Attentional rule-shifting. Habituation: Mice were handled and gradually food restricted to 90% of their baseline weight over 3 weeks. Habituation took place over 3 days in which food rewards (Cheerio bits) were placed along each arm of a plusmaze. Mice were allowed to freely explore the maze and consume the food for 4 trials per day with a maximum time of 30 minutes per trial. When the mouse had consumed all of the food, the trial ended, and the mouse was returned to a holding cage while the maze was rebaited. The number of food pellets in each arm decreased from 4 to 2 to 1 on each consecutive day of habituation. Turn bias: On the fourth day the inventors assessed the animals' turn bias. Therefore, the plus maze was converted into a T-maze by blocking off one of the arms. Mice were placed in the stem arm (starting arm) and allowed to turn left or right to obtain a food pellet. After the mouse consumed the reward, it was returned to the stem arm and allowed to make another choice. […]

SNI mice [3] = test: conditioned place preference (CPP) after SNI; format: in vivo, mouse; conditions: WT SNI, 10 mg/kg i.p., single conditioning day
Method: Conditioned Place Preference. A previously published CPP protocol from the Walters laboratory protocol was used (Yang et al., 2014). The CPP box consisted of one black and one white chamber connected by a striped chamber. CPP was conducted in a dark room with a single low lumens light source (Maia 69E120-WH). The middle chamber of the CPP box was brightly illuminated to discourage mice from spending time in the middle chamber. […] On day 1 of testing (preconditioning), each mouse was permitted to explore the middle and black (but not white) chambers for 30 minutes. […] On the last day of CPP, each mouse was placed in the middle chamber with unrestricted access to all chambers and video-recorded for 10 min. Data are presented as the percent change in time spent in the drug-paired chambered compared to the control (vehicle or sham for each genotype or surgery). This was calculated by dividing each animal's time spent in the white box by the control average, multiplying by 100 and then subtracting 100.
as §1

[4] = tested on: cultured mouse DRG neurons; test: microelectrode array (MEA) recordings of cultured DRG neurons exposed to IL-6; format: cell-based; conditions: for spontaneous firing: IL-6 100 ng/ml, tomivosertib 25 nM co-treatment
Method: Extracellular electrophysiology. Substrate-integrated microelectrode array (MEA) recordings were performed using PDL and laminin pre-treated 12-well MEA plates (Axion Biosystems, USA) and an Axion Maestro recording system. DRG sensory neurons were dissected, dissociated, and seeded as previously described (Moy et al., 2017). […] Cultures were maintained at 37° C., 5% CO2, and ≥90% humidity throughout the recordings. Briefly, 30 min baseline recordings were carried out following a 30 min acclimation period. […] Recordings were then collected continuously for 3 hours. […] Online and offline MEA data analysis was performed using Axion's AxIS, NeuralMetrics Tools, and NeuroExplorer (NeuroExplorer, USA). Physiologically relevant extracellular action potentials were defined as previously described^29.

mice = test: rotarod; format: in vivo, mouse; conditions: 10 mg/kg i.p., 1 hour
Method: Rotarod. Motor function was assessed using a rotarod (IITC Life Science rotarod series 8) with ramp speed (20 rpm acceleration) at a starting speed of […] for a maximum of 120s. The time until each animal fell was recorded for each trial. Naïve mice were trained for 1 trial, and then 2 baseline trials were conducted and scores for both trials were averaged.

[5] = tested on: eIF4E phosphorylation at serine 209; conditions: in vitro, tumor cell lines; read-out: IC50, reduction of eIF4E phosphorylation at serine 209; cited from earlier work
[6] = tested on: models which harbor activating MyD88 mutations; conditions: in vivo, multiple models; cited from earlier work

Cc1cc(Nc2cc(N)ncn2)c(=O)n2c1C(=O)NC21CCCCC1 [eFT508, Tomivosertib]
RagA protein level ([1]; 1 μM for 1 hr): decrease | level of eIF4E phosphorylation ([1]; 0.1 and 1 μM, 1 hr): significantly reduced | other signaling pathways ([1]; 0.1 and 1 μM, 1 hr): without affecting other signaling pathways | reduction of eIF4E phosphorylation ([1]; cultured DRGs neurons): 90% | general translation (puromycin incorporation in the DRG) (DRG): not influenced | never-reinforced (NRE) and regressive (REG) type errors (SNI mice [2]): significantly fewer | more time in the drug-paired (white) chamber vs SNI animals that received vehicle (SNI mice [3]): ~40% | firing, tomivosertib only vs IL-6 only group ([4]; 25 nM): reduction in firing | spontaneous firing ([4]; listed as Tomivosertib): significantly reduced | spontaneous firing ([4]; listed as tomivosertib): attenuated | firing rate at treatment time points vs baseline recording ([4]; tomivosertib only group): no significant difference in firing rate | rotarod performance vs naïve mice (mice): no significant difference | IC50 [5]: 2 to 16 nM | anti-tumor activity [6]: significant anti-tumor activity
